How the values were obtained:
rod opsin = target: T1, rod opsin (Mus musculus, UniProt P15409); experiment: cAMP quantification assay in NIH3T3-(WT-opsin/GFP) cells; format: cell-based
T1 construct: expressed in transfected cells
Source text: Three NIH3T3 stable cell lines, NIH3T3-(WT-opsin/GFP), NIH3T3-(P23H-opsin/GFP), and NIH3T3-(GFP) were previously generated which stably express mouse WT opsin and GFP; P23H opsin and GFP; and only GFP, respectively. GFP is expressed separately from opsin in these cell lines. NIH3T3 cells were from ATCC. DNA constructs for generating these stable cell lines were confirmed by Sanger sequencing. Expression of GFP was confirmed by green fluorescence imaging, and expression of P23H and WT opsin were confirmed by immunoblots.
NIH3T3-(Opsin/GFP) and NIH3T3-(GFP) were plated in two 96-well plates at a density of 50,000 cells per well in 100 μl of DMEM medium containing 10% FBS and antibiotics. After 24 h, cells were washed with Krebs Ringer bicarbonate buffer containing glucose (KRBG), and incubated with KRBG buffer containing 100 μM cAMP specific phosphodiesterase inhibitor, Ro 20-1724 (Tocris, UK) at RT for 10 min. […] While one plate then was wrapped with aluminum foil, the second plate was exposed to regular room light. Both plates were kept in a cell culture incubator for 15 min at 37° C. in 5% CO2. Levels of accumulated cAMP were detected with the Catchpoint cAMP fluorescent assay kit (Molecular Devices, Sunnyvale, CA USA) and the fluorescence with excitation/emission at 530/590 nm was read with a Flexstation3 plate reader (Molecular Devices) as described in the manufacturer's protocol.

bovine rod opsin = target: T2, bovine rod opsin (Bos taurus, UniProt P02699); experiment: Gt activation assay; format: biochemical
T2 construct: Constitutive activity of bovine opsin in disc membranes; from tissue; host or cells: bovine ROS membranes (opsin membranes and Gt both from bovine ROS)
Procedure: Gt was extracted and purified from frozen bovine ROS membranes as described in Preparation of Opsin Membranes. The intrinsic increase in the fluorescence from Gtα was measured with a L55 luminescence spectrophotometer (PerkinElmer Life Sciences) using an excitation and emission wavelengths of 300 and 345 nm, respectively. […] DMSO-treated opsin membranes were used to obtain a baseline for the basal activity of opsin. The molar ratio of opsin to Gt was 1:10, with opsin at a concentration of 100 nM and Gt at 1000 nM. […] This step was followed by the addition of 300 μM GTPγS (Sigma-Aldrich) to determine the GTPγS-induced complex dissociation and corresponding fluorescence changes. Gt activation rates were determined and plotted for the first 100 s of the Gt activation assay.

[1] = system: S. typhimurium TA1535, TA97a, TA98, TA100 and E. coli WP2; experiment: Micro Ames test; settings: five bacteria strains, with or without S9
Procedure: To determine the potential genotoxicity of YC-001, a Micro Ames test was performed by the Charles River Laboratories, Inc. The S9 microsomal fraction was obtained from Moltox Molecular Toxicology, Inc. (Boone, NC, USA). A premixture was prepared including 25 μL of S9 mix (10% v/v S9 fraction in 8 mM MgCl2, 33 mM KCl, 100 mM sodium phosphate buffer, pH 7.4, +S9) or phosphate buffer (0.2 M sodium phosphate, pH 7.4, 0S9), 5 μL of bacterial culture (>1000×10^6 bacteria mL^−1) and 100 μL of molten top agar supplemented with 0.05 mM biotin and minimal histidine (0.05 mM) and minimal tryptophan (0.05 mM). The 24-well plates were prepared by adding 1.3 mL of minimal bottom agar (1.3% agar, Vogel-Bonner medium E and 0.25% glucose) to each well. A 10 μL aliquot of YC-001 working solution/negative/positive control was added to each well followed by addition of 130 μL of the premixture. The plates kept on a leveled surface for 1 h while the top agar solidified, then were incubated at 37° C. for 72 h. After this period, plates were stored at 4° C. before revertant colony counts were manually recorded using an inverted microscope. […]

T2 sequence (P02699 whole entry): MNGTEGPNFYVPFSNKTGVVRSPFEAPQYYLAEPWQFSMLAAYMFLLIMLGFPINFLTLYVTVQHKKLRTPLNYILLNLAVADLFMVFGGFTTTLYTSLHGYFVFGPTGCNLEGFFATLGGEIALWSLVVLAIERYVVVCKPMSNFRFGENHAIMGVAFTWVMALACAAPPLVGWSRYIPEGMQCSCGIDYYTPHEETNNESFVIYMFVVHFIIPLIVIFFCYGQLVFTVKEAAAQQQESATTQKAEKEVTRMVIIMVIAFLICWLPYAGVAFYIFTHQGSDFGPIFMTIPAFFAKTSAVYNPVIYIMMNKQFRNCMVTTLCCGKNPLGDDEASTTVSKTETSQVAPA
T1 sequence (P15409 whole entry): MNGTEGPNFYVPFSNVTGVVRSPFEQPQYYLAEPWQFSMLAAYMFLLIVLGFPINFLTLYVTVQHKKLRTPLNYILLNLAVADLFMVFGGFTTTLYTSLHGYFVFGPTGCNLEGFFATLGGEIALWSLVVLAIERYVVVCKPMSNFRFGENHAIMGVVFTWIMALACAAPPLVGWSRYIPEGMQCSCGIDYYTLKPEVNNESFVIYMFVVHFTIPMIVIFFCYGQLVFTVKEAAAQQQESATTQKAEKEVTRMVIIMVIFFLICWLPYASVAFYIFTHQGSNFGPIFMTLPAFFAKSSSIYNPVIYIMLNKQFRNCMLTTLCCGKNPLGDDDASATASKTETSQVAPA

Row | SMILES | cAMP level upon light exposure (rod opsin; NIH3T3-(WT-opsin/GFP) cells, light) | fold increase in EC50 of 9-cis-retinal dose-response curve (rod opsin; with 40 μM YC-001 co-treatment vs 9-cis-retinal alone) | ln(kinitial), rate of Gt activation of regenerated isorhodopsin upon illumination (bovine rod opsin; 40 μM 9-cis-retinal alone) | cAMP levels, co-treated with 1 μM 9-cis-retinal under light (rod opsin; FIG. 5c) | EC50 (rod opsin; either in the dark or light, read-out: EC50 of dose-dependent increase in cAMP levels) | ln(kinitial), initial rate of Gt activation for opsin (bovine rod opsin; 40 μM compound, basal opsin activity) | ln(kinitial), rate of Gt activation of regenerated isorhodopsin upon illumination (bovine rod opsin; co-treated with 40 μM 9-cis-retinal and 40 μM YC-001) | Ames bacterial mutation test result [1]
1 | CC1=C(/C=C/C(C)=C\C=C\C(C)=C\C=O)C(C)(C)CCC1 [9-cis-retinal, reference compound] | significantly reduced cAMP level | 3 fold | −4.6 |  |  |  |  | 
2 | O=C1OCC(c2ccc(Cl)s2)=C1c1cccs1 [YC-001] |  |  |  | dose-dependent elevation in cAMP levels | 8.22 µM | −6.1 | −4.9 | negative
